Here are results for 18 compounds from patent US10259810B2, “N-sulfonylated pyrazolo[3,4-b]pyridin-6-carboxamides and method of use” (AbbVie S.à.r.l., priority 2015, dated 2019).

Experiment [1] addresses T1, ΔF508-CFTR (Homo sapiens, UniProt P13569, DEL508-508).
T1 construct: host or cells: CFBE41o-, doxycycline-inducible
As to the kind of experiment: CFTR cell surface levels using HRP-tagged ΔF508-CFTR expressing CFBE cells, intrinsic corrector capacity. Format: cell-based. On the set-up: % Activation: concentration or dose not given beside the values. In short, it runs like this:
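Surface ΔF508-CFTR was measured as HRP chemiluminescence from an extracellular-loop-4 tag, expressed as percent activity between DMSO and a […] corrector control.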

In experiment [2] the target is T1, ΔF508-CFTR. Put plainly: CFTR cell surface levels using HRP-tagged ΔF508-CFTR expressing CFBE cells, in the presence of a co-corrector. It is filed as cell-based. A digest of the protocol: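 Chemiluminescent read-out of surface HRP (15 min, dark) after PBS washes. Activity is normalized as 100×(sample−DMSO)/(3 μM co-corrector alone−DMSO).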
Setting [3] is: HRP-tagged ΔF508-CFTR expressing CFBE41o- cells, compound alone (intrinsic corrector capacity), 20 hours at 33° C.
Where [4] appears, read: HRP-tagged ΔF508-CFTR expressing CFBE41o- cells, compound alone (intrinsic corrector capacity), 20 hours at 33° C., read-out: EC50.
The mark [5] stands for this setting: HRP-tagged ΔF508-CFTR CFBE cells, in the presence of 3 μM co-corrector.
The mark [6] stands for this setting: HRP-tagged ΔF508-CFTR CFBE cells, in the presence of 3 μM co-corrector, read-out: EC50.

T1 sequence (P13569 with tags, fused parts or gaps DEL508-508): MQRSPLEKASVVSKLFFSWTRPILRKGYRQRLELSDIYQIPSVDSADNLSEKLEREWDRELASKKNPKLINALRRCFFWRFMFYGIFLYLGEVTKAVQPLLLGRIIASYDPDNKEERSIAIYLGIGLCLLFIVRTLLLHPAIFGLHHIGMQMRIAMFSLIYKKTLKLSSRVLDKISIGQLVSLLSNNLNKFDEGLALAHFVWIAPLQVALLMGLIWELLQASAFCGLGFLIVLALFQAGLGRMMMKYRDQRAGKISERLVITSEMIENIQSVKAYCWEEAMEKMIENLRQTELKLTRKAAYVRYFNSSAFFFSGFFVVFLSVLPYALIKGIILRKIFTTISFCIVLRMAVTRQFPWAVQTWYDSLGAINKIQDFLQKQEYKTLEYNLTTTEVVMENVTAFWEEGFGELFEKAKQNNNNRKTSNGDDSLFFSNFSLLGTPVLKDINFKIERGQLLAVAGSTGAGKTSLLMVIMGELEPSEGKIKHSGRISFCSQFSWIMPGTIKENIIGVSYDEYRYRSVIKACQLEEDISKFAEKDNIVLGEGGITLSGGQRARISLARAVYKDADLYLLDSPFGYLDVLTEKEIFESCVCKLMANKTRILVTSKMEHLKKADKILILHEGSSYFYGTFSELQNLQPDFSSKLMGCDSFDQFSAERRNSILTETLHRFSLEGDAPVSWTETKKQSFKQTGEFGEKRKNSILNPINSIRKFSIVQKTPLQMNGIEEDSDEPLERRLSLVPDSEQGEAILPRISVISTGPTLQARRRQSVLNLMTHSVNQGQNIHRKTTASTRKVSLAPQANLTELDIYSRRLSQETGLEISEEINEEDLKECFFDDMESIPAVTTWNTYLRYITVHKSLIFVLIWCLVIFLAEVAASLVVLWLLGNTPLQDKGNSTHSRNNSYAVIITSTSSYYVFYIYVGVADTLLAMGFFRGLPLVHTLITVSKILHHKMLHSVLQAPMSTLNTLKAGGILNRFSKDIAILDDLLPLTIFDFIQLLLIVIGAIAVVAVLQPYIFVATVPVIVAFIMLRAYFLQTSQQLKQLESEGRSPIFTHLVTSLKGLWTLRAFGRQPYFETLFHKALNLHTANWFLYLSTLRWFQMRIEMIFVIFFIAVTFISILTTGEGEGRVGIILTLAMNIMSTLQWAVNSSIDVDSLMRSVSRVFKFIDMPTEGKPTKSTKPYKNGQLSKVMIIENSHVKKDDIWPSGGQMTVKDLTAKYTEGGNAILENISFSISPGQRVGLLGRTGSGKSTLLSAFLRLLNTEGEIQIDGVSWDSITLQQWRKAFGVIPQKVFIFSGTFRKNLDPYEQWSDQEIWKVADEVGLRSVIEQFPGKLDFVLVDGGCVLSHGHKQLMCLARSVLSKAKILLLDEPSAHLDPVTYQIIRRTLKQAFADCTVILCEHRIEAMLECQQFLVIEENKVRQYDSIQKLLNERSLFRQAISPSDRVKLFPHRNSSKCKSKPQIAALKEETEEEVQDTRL

On to `COCC1CCN(c2cc(C(=O)NS(=O)(=O)N3CCC[C@H]3C(=O)N3CCN(C)CC3)nc3c2c(C2CCC2)nn3-c2ccccc2)CC1` [Compound 389, 3-cyclobutyl-4-[4-(methoxymethyl)piperidin-1-yl]-N-[(2S)-2-(4-methylpiperazine-1-carbonyl)pyrrolidine-1-sulfonyl]-1-phenyl-1H-pyrazolo[3,4-b]pyridine-6-carboxamide], for which the “% Activation” value was found to be 165% on ΔF508-CFTR [1] (setting [3]) and 305.1% on ΔF508-CFTR [2] (setting [5]). Besides, the EC50 (usually the concentration needed to bring the measured effect to its halfway point) at ΔF508-CFTR [1] (setting [4]) worked out at 556 nM; on ΔF508-CFTR [2] (setting [6]), 297 nM.
`COCC1CCN(c2cc(C(=O)NS(=O)(=O)N3CCC(N4CCC[C@H]4COC)CC3)nc3c2c(C2CCC2)nn3-c2ccccc2)CC1` [Compound 390, 3-cyclobutyl-4-[4-(methoxymethyl)piperidin-1-yl]-N-{4-[(2S)-2-(methoxymethyl)pyrrolidin-1-yl]piperidine-1-sulfonyl}-1-phenyl-1H-pyrazolo[3,4-b]pyridine-6-carboxamide]: the “% Activation” value worked out at 188.2% on ΔF508-CFTR [1] (setting [3]) and 350.17% at ΔF508-CFTR [2] (setting [5]). Further, the EC50 at ΔF508-CFTR [1] (setting [4]) was found to be 177 nM; on ΔF508-CFTR [2] (setting [6]), 140 nM.
On the same counts, the results for `CCCN(C)S(=O)(=O)NC(=O)c1cc(N2CCC(COC)CC2)c2c(C3CCC3)nn(-c3ccccc3)c2n1` [Compound 391, 3-cyclobutyl-4-[4-(methoxymethyl)piperidin-1-yl]-N-[methyl(propyl)sulfamoyl]-1-phenyl-1H-pyrazolo[3,4-b]pyridine-6-carboxamide] are 247.7%, 441.15%, 77.1 nM and 85.5 nM.
In the same order, the values of `CCCN(CC)S(=O)(=O)NC(=O)c1cc(N2CCC(COC)CC2)c2c(C3CCC3)nn(-c3ccccc3)c2n1` [Compound 392, 3-cyclobutyl-N-[ethyl(propyl)sulfamoyl]-4-[4-(methoxymethyl)piperidin-1-yl]-1-phenyl-1H-pyrazolo[3,4-b]pyridine-6-carboxamide] are 240.05%, 421.4%, 150 nM and 139 nM.
On the same counts, the results for `CCOC(=O)N1CCC(NS(=O)(=O)NC(=O)c2cc(N3CCC(COC)CC3)c3c(C4CCC4)nn(-c4ccccc4)c3n2)CC1` [Compound 393, ethyl 4-[({3-cyclobutyl-4-[4-(methoxymethyl)piperidin-1-yl]-1-phenyl-1H-pyrazolo[3,4-b]pyridine-6-carbonyl}sulfamoyl)amino]piperidine-1-carboxylate] are 423.6%, 533.65%, 51.4 nM and 20.8 nM.
Take `COCC1CCN(c2cc(C(=O)NS(=O)(=O)N3CCCN(C(C)=O)CC3)nc3c2c(C2CCC2)nn3-c2ccccc2)CC1` [Compound 394, N-(4-acetyl-1,4-diazepane-1-sulfonyl)-3-cyclobutyl-4-[4-(methoxymethyl)piperidin-1-yl]-1-phenyl-1H-pyrazolo[3,4-b]pyridine-6-carboxamide]: the results for the “% Activation” value at ΔF508-CFTR [1] (setting [3]) and on ΔF508-CFTR [2] (setting [5]) were 194.35% and 366.87%, respectively. For the same compound, the results for the EC50 on ΔF508-CFTR [1] (setting [4]) and on ΔF508-CFTR [2] (setting [6]) were 99.5 nM and 47.9 nM, respectively.
As to `COCC1CCN(c2cc(C(=O)NS(=O)(=O)N3CCC(N4CCC[C@@H]4COC)CC3)nc3c2c(C2CCC2)nn3-c2ccccc2)CC1` [Compound 395, 3-cyclobutyl-4-[4-(methoxymethyl)piperidin-1-yl]-N-{4-[(2R)-2-(methoxymethyl)pyrrolidin-1-yl]piperidine-1-sulfonyl}-1-phenyl-1H-pyrazolo[3,4-b]pyridine-6-carboxamide], the “% Activation” value is reported as 209.2% on ΔF508-CFTR [1] (setting [3]) and 327.95% on ΔF508-CFTR [2] (setting [5]). Further, the half-maximal effective concentration (EC50) on ΔF508-CFTR [1] (setting [4]) stood at 474 nM; on ΔF508-CFTR [2] (setting [6]), 127 nM.
In the same order, the values of `COCC1CCN(c2cc(C(=O)NS(=O)(=O)N3CCC(C(=O)N4CCN(C)CC4)CC3)nc3c2c(C2CCC2)nn3-c2ccccc2)CC1` [Compound 398, 3-cyclobutyl-4-[4-(methoxymethyl)piperidin-1-yl]-N-[4-(4-methylpiperazine-1-carbonyl)piperidine-1-sulfonyl]-1-phenyl-1H-pyrazolo[3,4-b]pyridine-6-carboxamide] are 173.7%, 324.03%, 181 nM and 73.6 nM.
In the same order, the values of `COCC1CCN(c2cc(C(=O)NS(=O)(=O)C3CC3)nc3c2c(C2CCC2)nn3-c2ccccc2)CC1` [Compound 401, 3-cyclobutyl-N-(cyclopropanesulfonyl)-4-[4-(methoxymethyl)piperidin-1-yl]-1-phenyl-1H-pyrazolo[3,4-b]pyridine-6-carboxamide] are 400.8%, 595.1%, 104 nM and 62 nM.
In the same order, the values of `CCS(=O)(=O)NC(=O)c1cc(N2CCC(COC)CC2)c2c(C3CCC3)nn(-c3ccccc3)c2n1` [Compound 403, 3-cyclobutyl-N-(ethanesulfonyl)-4-[4-(methoxymethyl)piperidin-1-yl]-1-phenyl-1H-pyrazolo[3,4-b]pyridine-6-carboxamide] are 389.2%, 507.35%, 30.2 nM and 25.6 nM.
For the compound `COCCS(=O)(=O)NC(=O)c1cc(N2CCC(N3CCOCC3)CC2)c2c(C3CCC3)nn(C3CCCCC3)c2n1` [Compound 419, 3-cyclobutyl-1-cyclohexyl-N-(2-methoxyethanesulfonyl)-4-[4-(morpholin-4-yl)piperidin-1-yl]-1H-pyrazolo[3,4-b]pyridine-6-carboxamide], the figures for the “% Activation” value on ΔF508-CFTR [1] (setting [3]) and at ΔF508-CFTR [2] (setting [5]) were 293% and 505.65%, respectively. Also, the results for the EC50 on ΔF508-CFTR [1] (setting [4]) and at ΔF508-CFTR [2] (setting [6]) were 448 nM and 277 nM, respectively.
In the same order, the values of `CN(C)S(=O)(=O)NC(=O)c1cc(N2CCC(CCN3CCOCC3)CC2)c2c(C3CCC3)nn(C3CCCCC3)c2n1` [Compound 425, 3-cyclobutyl-1-cyclohexyl-N-(dimethylsulfamoyl)-4-{4-[2-(morpholin-4-yl)ethyl]piperidin-1-yl}-1H-pyrazolo[3,4-b]pyridine-6-carboxamide] are 280.2%, 462.85%, 277 nM and 166 nM.
For the compound `CN(C)S(=O)(=O)NC(=O)c1cc(N2CCC(N3CCCCC3)CC2)c2c(C3CCC3)nn(-c3ccccc3)c2n1` [Compound 426, 4-([1,4′-bipiperidin]-1′-yl)-3-cyclobutyl-N-(dimethylsulfamoyl)-1-phenyl-1H-pyrazolo[3,4-b]pyridine-6-carboxamide], the half-maximal effective concentration (EC50) was 302 nM on ΔF508-CFTR [1] and 82 nM at ΔF508-CFTR [2]. The “% Activation” value came out at 143.7% at ΔF508-CFTR [1] (setting [3]) and 385.3% on ΔF508-CFTR [2] (setting [5]).
As for `COCC1CCN(c2cc(C(=O)NS(C)(=O)=O)nc3c2c(C2CCC2)nn3-c2ccnc(C)c2)CC1` [Compound 430, 3-cyclobutyl-N-(methanesulfonyl)-4-[4-(methoxymethyl)piperidin-1-yl]-1-(2-methylpyridin-4-yl)-1H-pyrazolo[3,4-b]pyridine-6-carboxamide], the “% Activation” value at ΔF508-CFTR [1] (setting [3]) was 170.05%; on ΔF508-CFTR [2] (setting [5]), 383.7%. Also, the half-maximal effective concentration (EC50) is 231 nM on ΔF508-CFTR [1] (setting [4]) and 89.9 nM at ΔF508-CFTR [2] (setting [6]).
As for `CCCN(C)S(=O)(=O)NC(=O)c1cc(N2CCC(N3CCOCC3)CC2)c2c(C3CCC3)nn(-c3ccccc3)c2n1` [Compound 432, 3-cyclobutyl-N-[methyl(propyl)sulfamoyl]-4-[4-(morpholin-4-yl)piperidin-1-yl]-1-phenyl-1H-pyrazolo[3,4-b]pyridine-6-carboxamide], the entries for the “% Activation” value at ΔF508-CFTR [1] (setting [3]) and on ΔF508-CFTR [2] (setting [5]) were 243.6% and 514.83%, respectively. Further, the EC50 on ΔF508-CFTR [1] (setting [4]) amounted to 119 nM; at ΔF508-CFTR [2] (setting [6]), 65.9 nM.
On to `CCOC(=O)N1CCC(NS(=O)(=O)NC(=O)c2cc(N3CCC(N4CCOCC4)CC3)c3c(C4CCC4)nn(-c4ccccc4)c3n2)CC1` [Compound 433, ethyl 4-[({3-cyclobutyl-4-[4-(morpholin-4-yl)piperidin-1-yl]-1-phenyl-1H-pyrazolo[3,4-b]pyridine-6-carbonyl}sulfamoyl)amino]piperidine-1-carboxylate], for which the “% Activation” value at ΔF508-CFTR [1] (setting [3]) turned out to be 361.5%; at ΔF508-CFTR [2] (setting [5]) it was 563.8%. Moreover, the 50% effective concentration (EC50) on ΔF508-CFTR [1] (setting [4]) stood at 96.5 nM; on ΔF508-CFTR [2] (setting [6]), 49 nM.
For `O=C(NS(=O)(=O)N1CCC(F)CC1)c1cc(N2CCC(N3CCOCC3)CC2)c2c(C3CCC3)nn(-c3ccccc3)c2n1` [Compound 434, 3-cyclobutyl-N-(4-fluoropiperidine-1-sulfonyl)-4-[4-(morpholin-4-yl)piperidin-1-yl]-1-phenyl-1H-pyrazolo[3,4-b]pyridine-6-carboxamide], the “% Activation” value on ΔF508-CFTR [1] (setting [3]) is 245.2%; on ΔF508-CFTR [2] (setting [5]), 470.37%. Further, the EC50 at ΔF508-CFTR [1] (setting [4]) is 57.7 nM; at ΔF508-CFTR [2] (setting [6]) it was 59.5 nM.
For the compound `CC1(S(=O)(=O)NC(=O)c2cc(N3CCC(N4CCOCC4)CC3)c3c(C4CCC4)nn(-c4ccccc4)c3n2)CC1` [Compound 435, 3-cyclobutyl-N-(1-methylcyclopropane-1-sulfonyl)-4-[4-(morpholin-4-yl)piperidin-1-yl]-1-phenyl-1H-pyrazolo[3,4-b]pyridine-6-carboxamide], the “% Activation” value is given as 269.9% on ΔF508-CFTR [1] (setting [3]) and 474.8% on ΔF508-CFTR [2] (setting [5]). Also, the results for the EC50 at ΔF508-CFTR [1] (setting [4]) and at ΔF508-CFTR [2] (setting [6]) were 136 nM and 82.8 nM, respectively.
